Here are results for three molecules from patent US6451781B1, “Substituted acylguanidines, process for their preparation, their use as medicaments or diagnostics, and medicaments comprising them” (Aventis Pharma Deutschland GmbH, priority 1999, dated 2002).

The target of data set [1] is T1, human Na+/H+ exchanger (subtype 3; NHE-3) (Homo sapiens, UniProt P48764).
T1 construct: expressed in transfected cells; host or cells: LAP1 cells (NHE-deficient), stably transfected with pMAMneo plasmid
T1 sequence (P48764 26-834): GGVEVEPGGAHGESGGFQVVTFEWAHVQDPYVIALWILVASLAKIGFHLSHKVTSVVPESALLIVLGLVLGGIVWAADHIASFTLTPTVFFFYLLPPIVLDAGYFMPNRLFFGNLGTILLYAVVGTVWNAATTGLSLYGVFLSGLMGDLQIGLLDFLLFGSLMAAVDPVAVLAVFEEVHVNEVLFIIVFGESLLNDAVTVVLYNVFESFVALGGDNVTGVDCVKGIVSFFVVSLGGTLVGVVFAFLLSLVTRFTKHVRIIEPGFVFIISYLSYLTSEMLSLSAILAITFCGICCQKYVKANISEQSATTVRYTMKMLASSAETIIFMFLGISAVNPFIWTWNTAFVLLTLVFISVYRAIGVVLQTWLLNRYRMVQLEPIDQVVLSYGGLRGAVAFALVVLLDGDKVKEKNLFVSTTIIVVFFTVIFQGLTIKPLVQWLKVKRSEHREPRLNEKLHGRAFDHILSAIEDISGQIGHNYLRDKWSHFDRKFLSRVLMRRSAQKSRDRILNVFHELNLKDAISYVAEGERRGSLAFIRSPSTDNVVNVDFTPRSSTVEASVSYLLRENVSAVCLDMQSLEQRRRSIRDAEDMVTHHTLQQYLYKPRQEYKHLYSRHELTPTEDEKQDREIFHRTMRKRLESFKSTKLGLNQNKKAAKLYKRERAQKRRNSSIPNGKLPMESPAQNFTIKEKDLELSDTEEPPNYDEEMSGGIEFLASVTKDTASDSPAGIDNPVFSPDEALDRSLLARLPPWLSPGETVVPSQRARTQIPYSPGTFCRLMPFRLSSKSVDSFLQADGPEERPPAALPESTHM
In words: Inhibition of the NHE antiport subtype 3: intracellular pH recovery after acid load (BCECF) in stably transfected LAP1 cells. It counts as cell-based. To be noted: human NHE-3, pH recovery in % of maximum recovery, read-out: Residual activity at 30 μM. The method, then: The absorption of water from the gall bladder is inhibited by inhibition of the apical NHE antiport of the subtype 3 of the gall bladder epithelium, which results in a dilute bile fluid. This dilute bile fluid prevents gallstone formation and, if gallstones are already present, brings about their dissolution. The inhibition of the NHE antiport of the subtype 3 by the compounds of the formula I according to the invention was determined by means of the following test.
Most of the molecular bilology techniques follow protocols from the works “Current Protocols in Molecular Biology (eds. Ausubel, F. M., Brent, R., Kingston, R. E., Moore, D. D., Seidman, J. G., Smith, J. A. and Struhl, K.; John Wiley & Sons)” and “Molecular Cloning: A Laboratory Manual (Sambrock, J., Fritsch, E. F. und Maniatis, T.; Cold Spring Harbor Laboratory Press (1989))”. […] In this test, the increase in the intracellular pH (pHi) after an acidification was determined which commenced with functional NHE even under bicarbonate-free conditions. For this, the pHi was determined using the pH-sensitive fluorescent dye BCECF (Calbiochem, the precursor BCECF-AM is employed). […] The BCECF fluorescence was determined in a “ratio fluorescence spectrometer” (Photon Technology International, South Brunswick, N.J., USA) at excitation wavelengths of 505 and 440 nm and an emission wavelength of 535 nm and converted into the pHi by means of calibration curves. […]

Structures are written as SMILES.

`C/C(=C\c1cc(F)c(Oc2ccc(CC(=O)NCCO[C@H]3CC[C@@]4(C)[C@@H](C3)C[C@@H](O)[C@@H]3[C@@H]4C[C@H](O)[C@]4(C)[C@@H]([C@H](C)CCC(=O)O)CC[C@@H]34)cc2)c(F)c1)C(=O)N=C(N)N` (stereo in doubt) [Example 1, 4-{3-[2-(2-{4-[2,6-Difluoro-4-(3-guanidino-2-methyl-3-oxopropenyl)phenoxy]phenyl}acetylamino)ethoxy]-7,12-dihydroxy-10,13-dimethylhexadecahydro-cyclopenta[a]phenanthren-17-yl}pentanoic acid]: the remaining activity at 30 µM in data set [1] came to 17%.

The term melting point denotes the temperature, or range, at which the solid turns liquid. In the case of `C/C(=C\C(=O)N=C(N)N)c1cc(F)c(Oc2ccc(CC(=O)N[C@H]3CC[C@@]4(C)[C@@H](C3)C[C@@H](O)[C@@H]3[C@@H]4C[C@H](O)[C@]4(C)[C@@H]([C@H](C)CCC(=O)O)CC[C@@H]34)cc2)c(F)c1` (stereo in doubt) [Example 2, 4-[3-(2-{4-[2,6-Difluoro-4-(3-guanidino-1-methyl-3-oxopropenyl)phenoxy]phenyl}acetylamino)-7,12-dihydroxy-10,13-dimethylhexadecahydrocyclopenta[a]phenanthren-17-yl]pentanoic acid], the melting point is 190 °C (dec.). Besides, the remaining activity at 30 µM in data set [1] is 10%.

For the molecule `C[C@H](CCC(=O)O)[C@H]1CC[C@H]2[C@@H]3[C@H](O)C[C@@H]4C[C@@H](OCCNC(=O)c5cccc(-c6ccc(C(=O)N=C(N)N)cc6)c5)CC[C@]4(C)[C@H]3C[C@H](O)[C@]12C` (stereo in doubt) [Example 3, 4-(3-{2-[(4′-Guanidinocarbonylbiphenyl-3-carbonyl)amino]ethoxy}-7,12-dihydroxy-10,13-dimethylhexadecahydrocyclopenta[a]phenanthren-17-yl)pentanoic acid], the remaining activity at 30 µM in data set [1] amounted to 65%.
